One experiment deals with MCF10A-HER2 spheroids. Briefly: Morphogenesis assay in Matrigel: luminal filling and cleaved Caspase-3 staining by confocal microscopy. Format: cell-based, human. The settings on record: spheroids grown 4 days, then 10058-F4 1 μM, FIG. 4G; for luminal filling: LY-294002 2 μM or U0126 1 μM for up to 4 additional days, day 8; for Caspase-3 activation: LY-294002 2 μM or U0126 1 μM, imaged on day 6.

The test system of experiment [1] is Notch pathway genes in MCF10A-HER2 spheroids. As to conditions: U0126 1 μM, up to five days, lumen-filled spheroids; FIG. 2C.

The record followed here is patent US9415103B2, “Combination therapy to prevent DCIS formation and progression to breast cancer” (Yeda Research and Development Co. Ltd., priority 2011, dated 2016).

Take `CCc1ccc(/C=C2/SC(=S)NC2=O)cc1` [10058-F4]: in the experiment on MCF10A-HER2 spheroids, the luminal filling result was “significant inhibition” and the Caspase-3 activation result is recorded as “markedly enhanced”.
Take `N#CC(=C(/N)Sc1ccccc1N)/C(C#N)=C(\N)Sc1ccccc1N` [U0126]: in the experiment on MCF10A-HER2 spheroids, the luminal filling entry is “significant inhibition” and the Caspase-3 activation result is listed as “markedly enhanced”. In addition, in experiment [1], the “transcriptional induction of the Notch pathway (qRT-PCR)” value was “contributes to the transcriptional induction of the Notch pathway”.
